Test [1] has as its target RAF proto-oncogene serine/threonine-protein kinase (Homo sapiens) (UniProt P04049). The test is described as follows: Inhibition of C-RAF phosphorylation at Ser 338 residue in human HeLa cells at 10 uM preincubated with compound for 1 hr and followed by EGF stimulation for 30 mins by Western blot analysis. The format is cell-based. (Immunoblotting shows a protein as a band on a membrane.)

For test [2], the system named is MCF7. Kind of test: Upregulation of p21 expression in human MCF7 cells at 1 uM incubated for 72 hrs by Western blot analysis. The format is functional, cell-based.
Test [3] has as its system MCF7. The test is described as follows: Antiproliferative activity against human MCF7 cells assessed as reduction in cell viability at 1 uM incubated for 72 hrs by trypan blue exclusion assay. The format is functional, cell-based.
The target in test [4] is Dual specificity mitogen-activated protein kinase kinase 1 (Homo sapiens) (UniProt Q02750). Kind of test: Inhibition of MEK1 phosphorylation in human HeLa cells at 10 uM preincubated for 1 hr and followed by EGF stimulation for 30 mins by Western blot analysis. The format is cell-based.
The next test relates to HBL. Kind of test: Induction of pigmentation in human HBL cells assessed as melanogenesis at 0.1 to 10 uM by microscopic analysis. The format is functional, cell-based. The following applies: dose 0.1-10 µM.
For a further test, the system named is HeLa. The test is described as follows: Cytotoxicity against human HeLa cells assessed as reduction in cell viability measured after 24 hrs by MTT assay. The format is functional, cell-based. The conditions noted are these: dose 1.25-10 µM. For orientation: Formazan colour is commonly taken as a measure of viable cells.
Test [5] deals with MCF7. The test is described as follows: Antiproliferative activity against human MCF7 cells transfected with p21 siRNA assessed as reduction in cell viability at 1 uM incubated for 48 hrs by tryphan blue dye exclusion analysis. The format is functional, cell-based.

The structures appear in SMILES notation. Activity calls are given as the source filed them. The calls are words filed in the database; no cut-off is given here.

Chain of RAF proto-oncogene serine/threonine-protein kinase (Homo sapiens) (P04049 whole entry): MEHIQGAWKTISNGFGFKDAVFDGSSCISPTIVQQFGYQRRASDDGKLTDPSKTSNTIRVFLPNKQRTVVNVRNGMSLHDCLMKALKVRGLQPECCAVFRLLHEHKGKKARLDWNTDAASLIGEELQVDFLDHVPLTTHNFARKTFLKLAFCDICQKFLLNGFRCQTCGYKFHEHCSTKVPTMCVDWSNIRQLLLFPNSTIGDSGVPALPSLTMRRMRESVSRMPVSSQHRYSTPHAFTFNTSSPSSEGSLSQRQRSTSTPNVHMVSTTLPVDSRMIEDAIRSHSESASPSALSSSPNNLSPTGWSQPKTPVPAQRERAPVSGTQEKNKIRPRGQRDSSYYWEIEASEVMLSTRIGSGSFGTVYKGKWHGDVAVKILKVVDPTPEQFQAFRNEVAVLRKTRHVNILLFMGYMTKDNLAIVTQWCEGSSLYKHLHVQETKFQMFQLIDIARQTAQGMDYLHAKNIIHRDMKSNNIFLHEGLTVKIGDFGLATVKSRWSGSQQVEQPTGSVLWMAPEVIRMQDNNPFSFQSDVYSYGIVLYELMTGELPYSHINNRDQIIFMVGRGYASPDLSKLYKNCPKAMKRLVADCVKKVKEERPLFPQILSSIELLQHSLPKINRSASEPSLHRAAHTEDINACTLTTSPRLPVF
Chain of Dual specificity mitogen-activated protein kinase kinase 1 (Homo sapiens) (Q02750 whole entry): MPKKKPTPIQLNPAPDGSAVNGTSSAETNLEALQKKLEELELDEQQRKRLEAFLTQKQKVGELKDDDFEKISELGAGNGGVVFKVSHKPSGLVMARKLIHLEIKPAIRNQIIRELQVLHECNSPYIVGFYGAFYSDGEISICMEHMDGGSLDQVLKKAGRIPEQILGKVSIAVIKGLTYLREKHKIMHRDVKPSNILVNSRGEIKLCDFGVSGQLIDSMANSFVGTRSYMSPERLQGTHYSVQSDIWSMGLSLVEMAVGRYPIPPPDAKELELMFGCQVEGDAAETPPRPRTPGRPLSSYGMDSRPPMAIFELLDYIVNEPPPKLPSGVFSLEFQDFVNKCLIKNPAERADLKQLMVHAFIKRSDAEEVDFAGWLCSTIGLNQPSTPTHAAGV

With `FC1(F)SC(c2ccc(Cl)cc2)=NC1(F)c1ccc(Cl)cc1` (stereo not drawn), the inhibition entry in test [1] and in test [4] was “inactive” each time. Further, the result in the test on MCF7 [2] and in the test on MCF7 [3] was inactive. In the test with HBL, the outcome was Active.
As for `FC1(F)N=C(c2ccc(Cl)cc2)SC1(F)c1ccc(Cl)cc1` (stereo not drawn), in the test with HeLa, the Activity result was “Dose-Dependent Effect”. In addition, in the test with HBL, the outcome was Active.
As for `FC1(F)N=C(c2ccccn2)SC1(F)c1ccccc1` (stereo not drawn), in test [1], the inhibition entry is “Active”. In the test on HBL, the outcome was Active.
Consider `CC1(F)N=C(c2ccc(Cl)cc2)SC1(F)c1ccc(Cl)cc1` (stereo not drawn), for which the inhibition entry in test [1] was “inactive”. The inhibition entry in test [4] is “Active”.
Regarding `FC1(F)N=C(c2ccc(Cl)cn2)SC1(F)c1ccc(Cl)cc1` (stereo not drawn), the inhibition result in test [1] is “Active”. Besides, the Activity entry in the test on HeLa was “Dose-Dependent Effect”. Besides, in test [4], the inhibition entry is “inactive”. The result with HBL was Active.
For the compound `Cc1ccc(C2(F)SC(c3ccccc3)=NC2(F)F)cc1` (stereo not drawn), the inhibition result in test [1] and in test [4] was “inactive” each time. Also, in the test on HeLa, the Activity result is “Dose-Dependent Effect”. Besides, the result in the test on MCF7 [5] was inactive. Besides, the result with HBL was Active.
Turning to `FC1(F)N=C(c2ccc(Br)cc2)SC1(F)c1ccc(Cl)cc1` (stereo not drawn), the inhibition entry in test [1] is “Active”. Moreover, the Activity entry with HeLa is “Dose-Dependent Effect”. Besides, the outcome in the test on MCF7 [2], with MCF7 [3] and in the test on HBL was Active.
In the case of `FC1(F)N=C(c2ncccn2)SC1(F)c1ccc(Cl)cc1` (stereo not drawn), the inhibition result in test [1] and in test [4] was “Active” each time. Besides, in the test with HBL, the result was Active.
As to `FC1(F)N=C(c2cnccn2)SC1(F)c1ccc(Cl)cc1` (stereo not drawn), the inhibition entry in test [1] and in test [4] was “inactive” throughout. For the same compound, the result in the test on MCF7 [2], in the test on MCF7 [3] and in the test with HBL was Active. Further, the outcome with MCF7 [5] was inactive.
`FC1(F)N=C(c2ccccn2)SC1(F)c1ccc(Cl)cc1` (stereo not drawn): the inhibition result in test [1] and in test [4] was “Active” each time. Besides, the outcome in the test with HBL was Active.
Take `O=C(c1ccccc1)c1ccc(C2=NC(F)(F)C(F)(c3ccc(Cl)cc3)S2)cc1` (stereo not drawn): in test [1], the inhibition result is “Active”. The result in the test with HBL was Active.
`Cc1ccc(C2(F)SC(c3ccc(Cl)cc3)=NC2(F)F)cc1` (stereo not drawn): the inhibition entry in test [1] and in test [4] was “Active” throughout. Also, the Activity entry in the test on HeLa was “Dose-Dependent Effect”. Besides, the outcome in the test on HBL was Active.

For the origin of these results see ChEMBL document CHEMBL5352394, “Development of fluorizoline analogues as prohibitin ligands that modulate C-RAF signaling, p21 expression and melanogenesis” (Eur J Med Chem, 2022).
